biological target: T1, recombinant human GR (Homo sapiens, UniProt P04150); experiment: Human Glucocorticoid Receptor (GR) Assay (fluorescence polarization, Panvera/Invitrogen kit); assay type: binding; details: fluorescence polarization; GS Red tracer; 2 hours at room temperature; 100% control 10 μM Dexamethasone; read-out: Inhibition of GR binding, IC50
T1 construct: purchased Panvera/Invitrogen P2812 (kit P2893)
T1 sequence (P04150 1-777): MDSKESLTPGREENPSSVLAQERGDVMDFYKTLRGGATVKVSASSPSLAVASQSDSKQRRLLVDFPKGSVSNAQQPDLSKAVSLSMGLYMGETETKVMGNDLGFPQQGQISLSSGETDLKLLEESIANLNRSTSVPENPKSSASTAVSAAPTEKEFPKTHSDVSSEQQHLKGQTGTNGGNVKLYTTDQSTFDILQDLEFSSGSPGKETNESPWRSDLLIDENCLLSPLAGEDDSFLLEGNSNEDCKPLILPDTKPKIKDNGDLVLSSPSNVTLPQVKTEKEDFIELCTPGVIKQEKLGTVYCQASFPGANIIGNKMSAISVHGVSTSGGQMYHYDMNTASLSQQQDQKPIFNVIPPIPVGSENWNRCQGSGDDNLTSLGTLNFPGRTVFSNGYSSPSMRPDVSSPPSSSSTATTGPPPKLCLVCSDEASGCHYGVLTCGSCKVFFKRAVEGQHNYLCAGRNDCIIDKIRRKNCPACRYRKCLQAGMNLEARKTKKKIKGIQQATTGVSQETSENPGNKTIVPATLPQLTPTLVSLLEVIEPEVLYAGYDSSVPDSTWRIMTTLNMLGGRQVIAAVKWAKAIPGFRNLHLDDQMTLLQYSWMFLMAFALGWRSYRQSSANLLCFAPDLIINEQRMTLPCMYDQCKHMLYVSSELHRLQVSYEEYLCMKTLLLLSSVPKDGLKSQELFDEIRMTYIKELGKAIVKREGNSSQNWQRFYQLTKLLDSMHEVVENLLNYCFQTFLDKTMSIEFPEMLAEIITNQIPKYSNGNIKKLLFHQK
Protocol: Human Glucocorticoid Receptor (GR) Assay
The assay is based on a commercial kit from Panvera/Invitrogen (Part number P2893). The assay technology is fluorescence polarization. […] The GR and Stabilizing Peptide reagents are stored at −70° C. while the GS Red is stored at −20° C. Also included in the kit are 1M DTT (Panvera, Part number P2325, stored at −20° C.) and GR Screening buffer 10× (Panvera, Part number P2814, stored at −70° C. initially but once thawed stored at room temperature). Avoid repeated freeze/thaws for all reagents. The GR Screening buffer 10× comprises 100 mM potassium phosphate, 200 mM sodium molybdate, 1 mM EDTA and 20% DMSO.
0% control was 100% DMSO and 100% control was 10 μM Dexamethasone. Background solution (8 μL; assay buffer 10×, Stabilizing Peptide, DTT and ice cold MQ water) was added to the background wells. GS Red solution (7 μL; assay buffer 10×, Stabilizing Peptide, DTT, GS Red and ice cold water) was added to all wells except background wells. GR solution (7 μL; assay buffer 10×, Stabilizing Peptide, DTT, GR and ice cold water) was added to all wells. The plate was sealed and incubated in a dark at room temperature for 2 hours.

**Q.** For `CCC(=O)O[C@]1(C(=O)SCC(N)=O)CC[C@H]2[C@@H]3CCC4=Cc5c(cnn5-c5ccc(F)cc5)C[C@]4(C)[C@H]3[C@@H](O)C[C@@]21C` [Example 13, (1R,3aS,3bS,10aR,10bS,11S,12aS)-{[(2-Amino-2-oxoethyl)thio]carbonyl}-7-(4-fluorophenyl)-11-hydroxy-10a,12a-dimethyl-1,2,3,3a,3b,4,5,7,10,10a,10b,11,12,12a-tetradecahydrocyclopenta[5,6]naphtho[1,2-f]indazol-1-yl propanoate], which IC50 is on record?
**A.** 3.1 nM

**Q.** How did the IC50 turn out when `CCC(=O)O[C@]1(C(=O)SCOC)CC[C@H]2[C@@H]3CCC4=Cc5c(cnn5-c5ccc(F)cc5)C[C@]4(C)[C@H]3[C@@H](O)C[C@@]21C` [Example 14, (1R,3aS,3bS,10aR,10bS,11S,12aS)-7-(4-Fluorophenyl)-11-hydroxy-{[(methoxy-methyl)thio]carbonyl}-10a,12a-dimethyl-1,2,3,3a,3b,4,5,7,10,10a,10b,11,12,12a-tetradecahydrocyclopenta[5,6]naphtho[1,2-f]indazol-1-yl propanoate] was run?
**A.** 3.6 nM

**Q.** With `CCC(=O)O[C@]1(C(=O)SCCO)CC[C@H]2[C@@H]3CCC4=Cc5c(cnn5-c5ccc(F)cc5)C[C@]4(C)[C@H]3[C@@H](O)C[C@@]21C` [Example 15, (1R,3aS,3bS,10aR,10bS,11S,12aS)-7-(4-Fluorophenyl)-11-hydroxy-1-{[(2-hydroxyethyl)thio]carbonyl}-10a,12a-dimethyl-1,2,3,3a,3b,4,5,7,10,10a,10b,11,12,12a-tetradecahydropcyclopenta[5,6]naphtho[1,2-f]indazol-1-yl propanoate] as the compound, how does the IC50 read?
**A.** 3.7 nM

**Q.** How did the IC50 turn out when `CCC(=O)O[C@]1(C(=O)SCCC#N)CC[C@H]2[C@@H]3CCC4=Cc5c(cnn5-c5ccc(F)cc5)C[C@]4(C)[C@H]3[C@@H](O)C[C@@]21C` [Example 16, (1R,3aS,3bS,10aR,10bS,11S,12aS)-{[(2-Cyanoethyl)thio]carbonyl}-7-(4-fluoro-phenyl)-11-hydroxy-10a,12a-dimethyl-1,2,3,3a,3b,4,5,7,10,10a,10b,11,12,12a-tetradecahydrocyclopenta[5,6]naphtho[1,2-f]indazol-1-yl propanoate] was run?
**A.** 3.4 nM

**Q.** With `CCC(=O)O[C@]1(C(=O)SCC(C)=O)CC[C@H]2[C@@H]3CCC4=Cc5c(cnn5-c5ccc(F)cc5)C[C@]4(C)[C@H]3[C@@H](O)C[C@@]21C` [Example 17, (1R,3aS,3bS,10aR,10bS,11S,12aS)-7-(4-Fluorophenyl)-11-hydroxy-10a,12a-dimethyl-1-{[(2-oxopropyl)thio]carbonyl}-1,2,3,3a,3b,4,5,7,10,10a,10b,11,12,12a-tetradecaphydrocyclopenta[5,6]naphtho[1,2-f]indazol-1-yl propanoate] as the compound, how does the IC50 read?
**A.** 4.8 nM

**Q.** With `CCC(=O)O[C@]1(C(=O)SCC#CCO)CC[C@H]2[C@@H]3CCC4=Cc5c(cnn5-c5ccc(F)cc5)C[C@]4(C)[C@H]3[C@@H](O)C[C@@]21C` [Example 18, (1R,3aS,3bS,10aR,10bS,11S,12aS)-7-(4-Fluorophenyl)-11-hydroxy-1-{[(4-hydroxy-but-2-yn-1-yl)thio]carbonyl}-10a,12a-dimethyl-1,2,3,3a,3b,4,5,7,10,10a,10b,11,12,12a-tetradecahydrocyclopenta[5,6]naphtho[1,2-f]indazol-1-yl propanoate] as the compound, how does the IC50 read?
**A.** 4.1 nM

**Q.** Which IC50 does the source give for `CCC(=O)O[C@]1(C(=O)SCF)CC[C@H]2[C@@H]3CCC4=Cc5c(cnn5-c5ccc(F)cc5)C[C@]4(C)[C@H]3[C@@H](O)C[C@@]21C` [Example 19, (1R,3aS,3bS,10aR,10bS,11S,12aS)-1-{[(Fluoromethyl)thio]carbonyl}-7-(4-fluoro-phenyl)-11-hydroxy-10a,12a-dimethyl-1,2,3,3a,3b,4,5,7,10,10a,10b,11,12,12a-tetradecahydrocyclopenta[5,6]naphtho[1,2-f]indazol-1-yl propanoate] here?
**A.** 3.7 nM

**Q.** Which IC50 does the source give for `C#CCSC(=O)[C@@]1(OC(=O)CC)CC[C@H]2[C@@H]3CCC4=Cc5c(cnn5-c5ccc(F)cc5)C[C@]4(C)[C@H]3[C@@H](O)C[C@@]21C` [Example 20, (1R,3aS,3bS,10aR,10bS,11S,12aS)-7-(4-fluorophenyl)-11-hydroxy-10a,12a-dimethyl-1-[(prop-2-yn-1-ylthio)carbonyl]-1,2,3,3a,3b,4,5,7,10,10a,10b,11,12,12a-tetradecaphydrocyclopenta[5,6]naphtho[1,2-f]indazol-1-yl propanoate] here?
**A.** 7.7 nM

**Q.** `CCC(=O)O[C@]1(C(=O)SC)CC[C@H]2[C@@H]3CCC4=Cc5c(cnn5-c5ccc(F)cc5)C[C@]4(C)[C@H]3[C@@H](O)C[C@@]21C` [Example 21, (1R,3aS,3bS,10aR,10bS,11S,12aS)-7-(4-Fluorophenyl)-11-hydroxy-10a,12a-dimethyl-1-[(methylthio)carbonyl]-1,2,3,3a,3b,4,5,7,10,10a,10b,11,12,12a-tetradecahydropcyclopenta[5,6]naphtho[1,2-f]indazol-1-yl propanoate] was tested. Which IC50 did it give?
**A.** 2.7 nM

**Q.** For `CCC(=O)O[C@]1(C(=O)SCC(=O)N(C)C)CC[C@H]2[C@@H]3CCC4=Cc5c(cnn5-c5ccc(F)cc5)C[C@]4(C)[C@H]3[C@@H](O)C[C@@]21C` [Example 22, (1R,3aS,3bS,10aR,10bS,11S,12aS)-1-({[2-(Dimethylamino)-2-oxoethyl]thio}carbonyl)-7-(4-fluorophenyl)-11-hydroxy-10a,12a-dimethyl-1,2,3,3a,3b,4,5,7,10,10a,10b,11,12,12a-tetradecahydrocyclopenta[5,6]naphtho[1,2-f]indazol-1-yl propanoate], which IC50 is on record?
**A.** 3.9 nM

**Q.** With `C=CCSC(=O)[C@@]1(OC(=O)CC)CC[C@H]2[C@@H]3CCC4=Cc5c(cnn5-c5ccc(F)cc5)C[C@]4(C)[C@H]3[C@@H](O)C[C@@]21C` [Example 23, (1R,3aS,3bS,10aR,10bS,11S,12aS)-7-(4-Fluorophenyl)-11-hydroxy-10a,12a-dimethyl-1-[(prop-2-en-1-ylthio)carbonyl]-1,2,3,3a,3b,4,5,7,10,10a,10b,11,12,12a-tetradecahydropcyclopenta[5,6]naphtho[1,2-f]indazol-1-yl propanoate] as the compound, how does the IC50 read?
**A.** 13 nM

**Q.** Which IC50 does the source give for `CCC(=O)O[C@]1(C(=O)SCCCO)CC[C@H]2[C@@H]3CCC4=Cc5c(cnn5-c5ccc(F)cc5)C[C@]4(C)[C@H]3[C@@H](O)C[C@@]21C` [Example 24, (1R,3aS,3bS,10aR,10bS,11S,12aS)-7-(4-Fluorophenyl)-11-hydroxy-1-{[(3-hydroxy-propyl)thio]carbonyl}-10a,12a-dimethyl-1,2,3,3a,3b,4,5,7,10,10a,10b,11,12,12a-tetradecahydrocyclopenta[5,6]naphtho[1,2-f]indazol-1-yl propanoate] here?
**A.** 5.1 nM

**Q.** For `CCC(=O)O[C@]1(C(=O)SCC2CC2)CC[C@H]2[C@@H]3CCC4=Cc5c(cnn5-c5ccc(F)cc5)C[C@]4(C)[C@H]3[C@@H](O)C[C@@]21C` [Example 25, (1R,3aS,3bS,10aR,10bS,11S,12aS)-1-{[(Cyclopropylmethyl)thio]carbonyl}-7-(4-fluorophenyl)-11-hydroxy-10a,12a-dimethyl-1,2,3,3a,3b,4,5,7,10,10a,10b,11,12,12a-tetradecahydrocyclopenta[5,6]naphtho[1,2-f]indazol-1-yl propanoate], which IC50 is on record?
**A.** 10 nM

**Q.** How did the IC50 turn out when `CCC(=O)O[C@]1(C(=O)SCCF)CC[C@H]2[C@@H]3CCC4=Cc5c(cnn5-c5ccc(F)cc5)C[C@]4(C)[C@H]3[C@@H](O)C[C@@]21C` [Example 26, (1R,3aS,3bS,10aR,10bS,11S,12aS)-1-{[(2-Fluoroethyl)thio]carbonyl}-7-(4-fluoro-phenyl)-11-hydroxy-10a,12a-dimethyl-1,2,3,3a,3b,4,5,7,10,10a,10b,11,12,12a-tetradecahydrocyclopenta[5,6]naphtho[1,2-f]indazol-1-yl propanoate] was run?
**A.** 4.3 nM
